{
  "source": "patent US12077503B2",
  "about": "“Substituted cyclic amides and their use as herbicides” (FMC CORPORATION, priority 2015, dated 2024)",
  "assay_type_in_all_cases": "in vivo",
  "key": {"[1]": {"system": "giant foxtail (Setaria faberii)", "test": "Test A preemergence", "method_in_brief": "(§1)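 Preemergence soil spray on seeded pots or post-emergence spray on 1–2 leaf plants, in loam–sand blend. Greenhouse ~10 d. Visual rating 0–100 against untreated plants.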"}, "[2]": {"system": "barnyardgrass (Echinochloa crus-galli)", "test": "Test A preemergence", "method_in_brief": "as §1"}, "[3]": {"system": "pigweed (Amaranthus retroflexus)", "test": "Test A preemergence"}, "[4]": {"system": "Kochia (Kochia scoparia)", "test": "Test A preemergence", "method_in_brief": "as §1"}, "[5]": {"system": "ryegrass, Italian (Italian ryegrass, Lolium multiflorum)", "test": "Test A preemergence", "method_in_brief": "as §1"}, "[6]": {"system": "ragweed (common ragweed, Ambrosia elatior)", "test": "Test A preemergence", "method_in_brief": "as §1"}, "[7]": {"system": "giant foxtail (Setaria faberii)", "test": "Test A postemergence", "conditions": "postemergence, 0 to 100 scale (0 no effect, 100 complete control)", "method_in_brief": "as §1"}, "[8]": {"system": "corn (Zea mays)", "test": "Test A postemergence", "conditions": "postemergence, 0 to 100 scale (0 no effect, 100 complete control)", "method_in_brief": "as §1"}, "[9]": {"system": "barnyardgrass (Echinochloa crus-galli)", "test": "Test A postemergence", "conditions": "postemergence, 0 to 100 scale (0 no effect, 100 complete control)", "method_in_brief": "as §1"}, "[10]": {"system": "pigweed (Amaranthus retroflexus)", "test": "Test A postemergence", "conditions": "postemergence, 0 to 100 scale (0 no effect, 100 complete control)", "method_in_brief": "as §1"}, "[11]": {"system": "Kochia (Kochia scoparia)", "test": "Test A postemergence", "conditions": "postemergence, 0 to 100 scale (0 no effect, 100 complete control)", "method_in_brief": "as §1"}, "[12]": {"system": "blackgrass (Alopecurus myosuroides)", "test": "Test A postemergence", "conditions": "postemergence, 0 to 100 scale (0 no effect, 100 complete control)", "method_in_brief": "as §1"}, "[13]": {"system": "ryegrass, Italian (Italian ryegrass, Lolium multiflorum)", "test": "Test A postemergence", "conditions": "postemergence, 0 to 100 scale (0 no effect, 100 complete control)", "method_in_brief": "as §1"}, "[14]": {"system": "Galium (catchweed bedstraw, Galium aparine)", "test": "Test A postemergence", "conditions": "postemergence, 0 to 100 scale (0 no effect, 100 complete control)", "method_in_brief": "as §1"}, "[15]": {"system": "wheat (Triticum aestivum)", "test": "Test A postemergence", "conditions": "postemergence, 0 to 100 scale (0 no effect, 100 complete control)", "method_in_brief": "as §1"}, "[16]": {"system": "ragweed (common ragweed, Ambrosia elatior)", "test": "Test A postemergence", "conditions": "postemergence, 0 to 100 scale (0 no effect, 100 complete control)", "method_in_brief": "as §1"}, "[17]": {"system": "ducksalad (Heteranthera limosa)", "test": "Test B flooded paddy test", "conditions": "Flood, 250 g ai/ha; 0 to 100 scale where 0 is no effect and 100 is complete control; 13 to 15 d", "method_in_brief": "(§2)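 Rating scale 0–100 (visual, vs untreated controls) after a 13–15 d greenhouse period; application to the flood layer, 3 cm above soil and maintained; plants at 2-leaf stage when treated.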"}, "[18]": {"system": "barnyardgrass (Echinochloa crus-galli)", "test": "Test B flooded paddy test", "conditions": "Flood, 250 g ai/ha; 0 to 100 scale where 0 is no effect and 100 is complete control; 13 to 15 d", "method_in_brief": "as §2"}, "[19]": {"system": "sedge, umbrella (small-flower umbrella sedge, Cyperus difformis)", "test": "Test B flooded paddy test", "conditions": "Flood, 250 g ai/ha; 0 to 100 scale where 0 is no effect and 100 is complete control; 13 to 15 d", "method_in_brief": "as §2"}, "[20]": {"system": "rice (Oryra sativa)", "test": "Test B flooded paddy test", "conditions": "Flood, 250 g ai/ha; 0 to 100 scale where 0 is no effect and 100 is complete control; 13 to 15 d", "method_in_brief": "as §2"}, "[21]": {"conditions": "125 g ai/ha, Preemergence, visual injury after approximately 10 d, 0 to 100 scale where 0 is no effect and 100 is complete control"}, "[22]": {"conditions": "500 g ai/ha, preemergence, 0 to 100 scale, 0 = no effect, 100 = complete control"}, "[23]": {"conditions": "125 g ai/ha, visual rating after approx. 10 d"}, "[24]": {"conditions": "500 g ai/ha, visual injury, approx. 10 d"}},
  "data": [
    {"smiles": "CC(C)Oc1cccc(C2CN(C)C(=O)C2C(=O)Nc2cccc(F)c2F)c1", "note": "(stereo not drawn) [Compound 651]", "values": [
      {"measurement": "Plant response rating, Foxtail, Giant", "setting": "[1]; [21]", "result": 90},
      {"measurement": "Plant response rating, Foxtail, Giant", "setting": "[1]; [22]", "result": 100},
      {"measurement": "Plant response rating, Barnyardgrass", "setting": "[2]; [21]", "result": 90},
      {"measurement": "Plant response rating, Barnyardgrass", "setting": "[2]; [22]", "result": 90},
      {"measurement": "Plant response rating, Pigweed", "setting": "[3]; [21]", "result": 40},
      {"measurement": "Plant response rating, Pigweed", "setting": "[3]; [22]", "result": 100},
      {"measurement": "Plant response rating, Kochia", "setting": "[4]; [21]", "result": 60},
      {"measurement": "Plant response rating, Kochia", "setting": "[4]; [22]", "result": 70},
      {"measurement": "Plant response rating, Ryegrass, Italian", "setting": "[5]; [21]", "result": 90},
      {"measurement": "Plant response rating, Ryegrass, Italian", "setting": "[5]; [22]", "result": 90},
      {"measurement": "Plant response rating, Ragweed", "setting": "[6]; [21]", "result": 50},
      {"measurement": "Plant response rating, Ragweed", "setting": "[6]; [22]", "result": 90},
      {"measurement": "Plant response rating, Foxtail, Giant", "setting": "[7]; [23]", "result": 80},
      {"measurement": "Plant response rating, Foxtail, Giant", "setting": "[7]; [24]", "result": 80},
      {"measurement": "Plant response rating, Corn", "setting": "[8]; [23]", "result": 80},
      {"measurement": "Plant response rating, Corn", "setting": "[8]; [24]", "result": 90},
      {"measurement": "Plant response rating, Barnyardgrass", "setting": "[9]; [23]", "result": 90},
      {"measurement": "Plant response rating, Barnyardgrass", "setting": "[9]; [24]", "result": 90},
      {"measurement": "Plant response rating, Pigweed", "setting": "[10]; [23]", "result": 0},
      {"measurement": "Plant response rating, Pigweed", "setting": "[10]; [24]", "result": 30},
      {"measurement": "Plant response rating, Kochia", "setting": "[11]; [23]", "result": 0},
      {"measurement": "Plant response rating, Kochia", "setting": "[11]; [24]", "result": 40},
      {"measurement": "Plant response rating, Blackgrass", "setting": "[12]; [23]", "result": 60},
      {"measurement": "Plant response rating, Blackgrass", "setting": "[12]; [24]", "result": 70},
      {"measurement": "Plant response rating, Ryegrass, Italian", "setting": "[13]; [23]", "result": 50},
      {"measurement": "Plant response rating, Ryegrass, Italian", "setting": "[13]; [24]", "result": 70},
      {"measurement": "Plant response rating, Galium", "setting": "[14]; [23]", "result": 60},
      {"measurement": "Plant response rating, Galium", "setting": "[14]; [24]", "result": 60},
      {"measurement": "Plant response rating, Wheat", "setting": "[15]; [23]", "result": 40},
      {"measurement": "Plant response rating, Wheat", "setting": "[15]; [24]", "result": 60},
      {"measurement": "Plant response rating, Ragweed", "setting": "[16]; [23]", "result": 0},
      {"measurement": "Plant response rating, Ragweed", "setting": "[16]; [24]", "result": 20},
      {"measurement": "Plant response rating, Ducksalad", "setting": "[17]", "result": 100},
      {"measurement": "Plant response rating, Barnyardgrass", "setting": "[18]", "result": 60},
      {"measurement": "Plant response rating, Sedge, Umbrella", "setting": "[19]", "result": 0},
      {"measurement": "Plant response rating, Rice", "setting": "[20]", "result": 0}
    ]}
  ]
}
